Reference: patent publication US20100099561A1, “HETEROBICYCLIC ALKYLTHIO-BRIDGED ISOXAZOLINES” (E.I. DU PONT DE NEMOURS AND COMPANY, priority 2008, published 2010)

Tests used:
Type in all cases: in vivo
[1] = system: velvetleaf (Abutilon theophrasti); test: Test A preemergence, velvetleaf; details: 0 to 100 scale (0 no effect, 100 complete control)
Excerpt: (§1) Seeds of barnyardgrass (Echinochloa crus-galli), large crabgrass (Digitaria sanguinalis), giant foxtail (Setaria faberi), morningglory (Ipomoea spp.), pigweed (Amaranthus retroflexus), velvetleaf (Abutilon theophrasti), wheat (Triticum aestivum), and corn (Zea mays) were planted into a blend of loam soil and sand and treated preemergence with a directed soil spray using test chemicals formulated in a non-phytotoxic solvent mixture which included a surfactant. At the same time these species were also treated with postemergence applications of test compounds formulated in the same manner. Plants ranged in height from two to ten cm and were in the one- to two-leaf stage for the postemergence treatment. Treated plants and untreated controls were maintained in a greenhouse for approximately ten days, after which time all treated plants were compared to untreated controls and visually evaluated for injury. Plant response ratings, summarized in Table A, are based on a 0 to 100 scale where 0 is no effect and 100 is complete control. A dash (-) response means no test result.

rice (Oryza sativa) = test: Test B flooded paddy test, rice; details: Flood, scale 0 to 100
Excerpt: (§2) Plant species in the flooded paddy test consisted of rice (Oryza sativa), umbrella sedge (Cyperus difformis), ducksalad (Heteranthera limosa) and barnyardgrass (Echinochloa crus-galli) grown to the 2-leaf stage for testing. At time of treatment, test pots were flooded to 3 cm above the soil surface, treated by application of test compounds directly to the paddy water, and then maintained at that water depth for the duration of the test. Treated plants and controls were maintained in a greenhouse for 13 to 15 days, after which time all species were compared to controls and visually evaluated. Plant response ratings, summarized in Table B, are based on a scale of 0 to 100 where 0 is no effect and 100 is complete control. A dash (-) response means no test result.

[2] = system: ducksalad (Heteranthera limosa); test: Test B flooded paddy test, ducksalad; details: Flood, scale 0 to 100
Excerpt: as §2

[3] = system: morningglory (Ipomoea spp.); test: Test A postemergence, morningglory; details: 0 to 100 scale (0 no effect, 100 complete control)
Excerpt: as §1

[4] = system: morningglory (Ipomoea spp.); test: Test A preemergence, morningglory; details: 0 to 100 scale (0 no effect, 100 complete control)
Excerpt: as §1

[5] = system: giant foxtail (Setaria faberi); test: Test A preemergence, giant foxtail; details: 0 to 100 scale (0 no effect, 100 complete control)
Excerpt: as §1

[6] = system: umbrella sedge (Cyperus difformis); test: Test B flooded paddy test, umbrella sedge; details: Flood, scale 0 to 100
Excerpt: as §2

[7] = system: wheat (Triticum aestivum); test: Test A postemergence, wheat; details: 0 to 100 scale (0 no effect, 100 complete control)
Excerpt: as §1

[8] = system: wheat (Triticum aestivum); test: Test A preemergence, wheat; details: 0 to 100 scale (0 no effect, 100 complete control)
Excerpt: as §1

corn (Zea mays) [9] = test: Test A preemergence, corn; details: 0 to 100 scale (0 no effect, 100 complete control)
Excerpt: as §1

[10] = system: barnyardgrass (Echinochloa crus-galli); test: Test B flooded paddy test, barnyardgrass; details: Flood
Excerpt: as §2

corn (Zea mays) [11] = test: Test A postemergence, corn; details: 0 to 100 scale (0 no effect, 100 complete control)
Excerpt: as §1

[12] = system: giant foxtail (Setaria faberi); test: Test A postemergence, giant foxtail; details: 0 to 100 scale (0 no effect, 100 complete control)
Excerpt: as §1

[13] = system: pigweed (Amaranthus retroflexus); test: Test A preemergence, pigweed; details: 0 to 100 scale (0 no effect, 100 complete control)
Excerpt: as §1

[14] = system: large crabgrass (Digitaria sanguinalis); test: Test A preemergence, large crabgrass; details: 0 to 100 scale (0 no effect, 100 complete control)
Excerpt: as §1

[15] = system: barnyardgrass (Echinochloa crus-galli); test: Test A preemergence, barnyardgrass; details: 0 to 100 scale (0 no effect, 100 complete control)
Excerpt: as §1

[16] = system: velvetleaf (Abutilon theophrasti); test: Test A postemergence, velvetleaf; details: 0 to 100 scale (0 no effect, 100 complete control)
Excerpt: as §1

[17] = system: barnyardgrass (Echinochloa crus-galli); test: Test A postemergence, barnyardgrass; details: 0 to 100 scale (0 no effect, 100 complete control)
Excerpt: as §1

[18] = system: large crabgrass (Digitaria sanguinalis); test: Test A postemergence, large crabgrass; details: 0 to 100 scale (0 no effect, 100 complete control)
Excerpt: as §1

[19] = system: pigweed (Amaranthus retroflexus); test: Test A postemergence, pigweed; details: 0 to 100 scale (0 no effect, 100 complete control)
Excerpt: as §1

Question: With CC1(C)CC([S+]([O-])Cc2c(C(F)(F)F)nc3n(c2=O)CCS3)=NO1 (centres unmarked) [Compound 5] as the compound, how does the “Plant response rating, Velvetleaf” value ([1]; 125 g ai/ha) read?
Answer: The value was 0.

Question: And the “Plant response rating, Velvetleaf” value ([1]; 500 g ai/ha)?
Answer: The value was 0.

Question: And the “Plant response rating, Rice” value (rice (Oryza sativa); 62 g ai/ha)?
Answer: The value was 0.

Question: And the “Plant response rating, Rice” value (rice (Oryza sativa); 250 g ai/ha)?
Answer: The value was 0.

Question: And the “Plant response rating, Ducksalad” value ([2]; 62 g ai/ha)?
Answer: The value was 0.

Question: And the “Plant response rating, Ducksalad” value ([2]; 250 g ai/ha)?
Answer: Its value is 20.

Question: And the “Plant response rating, Morningglory” value ([3]; 125 g ai/ha)?
Answer: Its value is 0.

Question: And the “Plant response rating, Morningglory” value ([3]; 500 g ai/ha)?
Answer: The value was 0.

Question: What about the “Plant response rating, Morningglory” value ([4]; 125 g ai/ha) of the same compound?
Answer: The value was 0.

Question: And the “Plant response rating, Morningglory” value ([4]; 500 g ai/ha)?
Answer: The value was 0.

Question: What about the “Plant response rating, Foxtail, Giant” value ([5]; 125 g ai/ha) of the same compound?
Answer: The value was 30.

Question: And the “Plant response rating, Foxtail, Giant” value ([5]; 500 g ai/ha)?
Answer: The value was 80.

Question: What about the “Plant response rating, Sedge, Umbrella” value ([6]; 62 g ai/ha) of the same compound?
Answer: The value was 0.

Question: And the “Plant response rating, Sedge, Umbrella” value ([6]; 250 g ai/ha)?
Answer: The value was 45.

Question: What about the “Plant response rating, Wheat” value ([7]; 125 g ai/ha) of the same compound?
Answer: The value was 0.

Question: And the “Plant response rating, Wheat” value ([7]; 500 g ai/ha)?
Answer: Its value is 0.

Question: And the “Plant response rating, Wheat” value ([8]; 125 g ai/ha)?
Answer: The value was 0.

Question: And the “Plant response rating, Wheat” value ([8]; 500 g ai/ha)?
Answer: The value was 0.

Question: What about the “Plant response rating, Corn” value (corn (Zea mays) [9]; 125 g ai/ha) of the same compound?
Answer: The value was 0.

Question: And the “Plant response rating, Corn” value (corn (Zea mays) [9]; 500 g ai/ha)?
Answer: The value was 0.

Question: What about the “Plant response rating, Barnyardgrass” value ([10]; 62 g ai/ha, scale 0 to 100) of the same compound?
Answer: Its value is 10.

Question: And the “Plant response rating, Barnyardgrass” value ([10]; 250 g ai/ha, scale 0 to 100 (0 no effect, 100 complete control))?
Answer: Its value is 30.

Question: What about the “Plant response rating, Corn” value (corn (Zea mays) [11]; 125 g ai/ha) of the same compound?
Answer: Its value is 0.

Question: And the “Plant response rating, Corn” value (corn (Zea mays) [11]; 500 g ai/ha)?
Answer: The value was 30.

Question: What about the “Plant response rating, Foxtail, Giant” value ([12]; 125 g ai/ha) of the same compound?
Answer: The value was 40.

Question: And the “Plant response rating, Foxtail, Giant” value ([12]; 500 g ai/ha)?
Answer: Its value is 70.

Question: And the “Plant response rating, Pigweed” value ([13]; 125 g ai/ha)?
Answer: The value was 40.

Question: And the “Plant response rating, Pigweed” value ([13]; 500 g ai/ha)?
Answer: Its value is 60.

Question: And the “Plant response rating, Crabgrass, Large” value ([14]; 125 g ai/ha)?
Answer: The value was 40.

Question: What about the “Plant response rating, Crabgrass, Large” value ([14]; 500 g ai/ha) of the same compound?
Answer: The value was 80.

Question: And the “Plant response rating, Barnyardgrass” value ([15]; 125 g ai/ha)?
Answer: The value was 0.

Question: And the “Plant response rating, Barnyardgrass” value ([15]; 500 g ai/ha)?
Answer: Its value is 70.

Question: What about the “Plant response rating, Velvetleaf” value ([16]; 125 g ai/ha) of the same compound?
Answer: Its value is 0.

Question: And the “Plant response rating, Velvetleaf” value ([16]; 500 g ai/ha)?
Answer: The value was 40.

Question: What about the “Plant response rating, Barnyardgrass” value ([17]; 125 g ai/ha) of the same compound?
Answer: Its value is 30.

Question: And the “Plant response rating, Barnyardgrass” value ([17]; 500 g ai/ha)?
Answer: The value was 60.

Question: What about the “Plant response rating, Crabgrass, Large” value ([18]; 125 g ai/ha) of the same compound?
Answer: The value was 10.

Question: What about the “Plant response rating, Crabgrass, Large” value ([18]; 500 g ai/ha) of the same compound?
Answer: The value was 70.

Question: And the “Plant response rating, Pigweed” value ([19]; 125 g ai/ha)?
Answer: Its value is 0.

Question: What about the “Plant response rating, Pigweed” value ([19]; 500 g ai/ha) of the same compound?
Answer: The value was 10.

Question: How did the “Plant response rating, Velvetleaf” value ([1]; 1000 g ai/ha) turn out when CC1(C)CC(SCc2c(C(F)(F)F)nc3n(c2=O)CCC3)=NO1 [Compound 9, 3-[[(4,5-dihydro-5,5-dimethyl-3-isoxazolyl)thio]methyl]-7,8-dihydro-2-(trifluoromethyl)pyrrolo[1,2-α]pyrimidin-4(6H)-one] was run?
Answer: Its value is 0.

Question: What about the “Plant response rating, Morningglory” value ([3]; 1000 g ai/ha) of the same compound?
Answer: The value was 30.

Question: What about the “Plant response rating, Morningglory” value ([4]; 1000 g ai/ha) of the same compound?
Answer: The value was 0.

Question: What about the “Plant response rating, Foxtail, Giant” value ([5]; 1000 g ai/ha) of the same compound?
Answer: Its value is 0.

Question: What about the “Plant response rating, Wheat” value ([7]; 1000 g ai/ha) of the same compound?
Answer: The value was 0.

Question: What about the “Plant response rating, Wheat” value ([8]; 1000 g ai/ha) of the same compound?
Answer: The value was 0.

Question: What about the “Plant response rating, Corn” value (corn (Zea mays) [9]; 1000 g ai/ha) of the same compound?
Answer: Its value is 0.

Question: And the “Plant response rating, Corn” value (corn (Zea mays) [11]; 1000 g ai/ha)?
Answer: The value was 0.

Question: And the “Plant response rating, Foxtail, Giant” value ([12]; 1000 g ai/ha)?
Answer: The value was 0.

Question: And the “Plant response rating, Pigweed” value ([13]; 1000 g ai/ha)?
Answer: Its value is 0.

Question: And the “Plant response rating, Crabgrass, Large” value ([14]; 1000 g ai/ha)?
Answer: The value was 0.

Question: And the “Plant response rating, Barnyardgrass” value ([15]; 1000 g ai/ha)?
Answer: The value was 0.

Question: What about the “Plant response rating, Velvetleaf” value ([16]; 1000 g ai/ha) of the same compound?
Answer: Its value is 10.

Question: And the “Plant response rating, Barnyardgrass” value ([17]; 1000 g ai/ha)?
Answer: The value was 0.

Question: And the “Plant response rating, Crabgrass, Large” value ([18]; 1000 g ai/ha)?
Answer: The value was 0.

Question: What about the “Plant response rating, Pigweed” value ([19]; 1000 g ai/ha) of the same compound?
Answer: The value was 10.
